From patent US6737383B1, “Herbicidal oxadiazolidines” (priority 1999, dated 2004)

What was measured:
soybean = assay: Test B pre/postemergence soybean; type: in vivo, Glycine max
How it was run: (§1)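 Herbicidal effect was estimated by eye on a ten-point control scale after plants spent twelve to sixteen days in a greenhouse following soil or foliar treatment. Foliar sprays targeted plants at one to four leaves; all doses were formulated in a non-phytotoxic solvent with surfactant.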

bedstraw = assay: Test B pre/postemergence bedstraw; type: in vivo, Galium aparine
How it was run: as §1

crabgrass = assay: Test B pre/postemergence crabgrass; type: in vivo, Digitaria sanguinalis
How it was run: as §1

morningglory = assay: Test B pre/postemergence morningglory; type: in vivo, Ipomoea hederacea
How it was run: as §1

purple nutsedge = assay: Test B pre/postemergence purple nutsedge; type: in vivo, Cyperus rotundus
How it was run: as §1

corn = assay: Test B pre/postemergence corn; type: in vivo, Zea mays
How it was run: as §1

cocklebur = assay: Test B pre/postemergence cocklebur; type: in vivo, Xanthium strumarium
How it was run: as §1

sugar beet = assay: Test B pre/postemergence sugar beet; type: in vivo, Beta vulgaris
How it was run: as §1

giant foxtail = assay: Test B pre/postemergence giant foxtail; type: in vivo, Setaria faberii
How it was run: as §1

wild oat = assay: Test B pre/postemergence wild oat; type: in vivo, Avena fatua
How it was run: as §1

surinam grass = assay: Test B pre/postemergence surinam grass; type: in vivo, Brachiaria decumbens
How it was run: as §1

velvetleaf = assay: Test B pre/postemergence velvetleaf; type: in vivo, Abutilon theophrasti
How it was run: as §1

rape = assay: Test B pre/postemergence rape; type: in vivo, Brassica napus
How it was run: as §1

blackgrass = assay: Test B pre/postemergence blackgrass; type: in vivo, Alopecurus myosuroides
How it was run: as §1

wheat = assay: Test B pre/postemergence wheat; type: in vivo, Triticum aestivum
How it was run: as §1

pigweed = assay: Test B pre/postemergence pigweed; type: in vivo, Amaranthus retroflexus
How it was run: as §1

[1] = Preemergence, Rate 62 g/ha, scale of 0 to 10 where 0 is no effect and 10 is complete control
[2] = Preemergence, Rate 125 g/ha, scale of 0 to 10 where 0 is no effect and 10 is complete control
[3] = Preemergence, Rate 250 g/ha, scale 0 (no effect) to 10 (complete control)
[4] = Rate 500 g/ha, Preemergence, scale 0 to 10 (0 no effect, 10 complete control)
[5] = Postemergence, Rate 62 g/ha, scale 0 to 10, 0 is no effect, 10 is complete control
[6] = Postemergence, Rate 500 g/ha, scale 0 (no effect) to 10 (complete control)
[7] = Rate 62 g/ha, Preemergence, scale 0 to 10
[8] = Rate 125 g/ha, Preemergence, scale 0 to 10 (0 no effect, 10 complete control)
[9] = Rate 250 g/ha, Postemergence, scale 0 to 10, 0 is no effect, 10 is complete control
[10] = Postemergence, Rate 125 g/ha, scale of 0 to 10 where 0 is no effect and 10 is complete control

CC(C)N(C(=O)n1oc(=O)n(C(C)C2=NOCC2)c1=O)c1ccccc1 (racemic) [Compound 729]
Soybean plant response rating (soybean; [1]): 0
Plant response rating, Soybean (soybean; [2]): 0
Soybean plant response rating (soybean; [3]): 2
Soybean plant response rating (soybean; [4]): 2
Bedstraw plant response rating (bedstraw; [1]): 0
Plant response rating, Bedstraw (bedstraw; [2]): 0
Bedstraw plant response rating (bedstraw; [3]): 8
Bedstraw plant response rating (bedstraw; [4]): 8
Crabgrass plant response rating (crabgrass; [1]): 7
Plant response rating, Crabgrass (crabgrass; [2]): 9
Crabgrass plant response rating (crabgrass; [3]): 9
Crabgrass plant response rating (crabgrass; [4]): 10
Morningglory plant response rating (morningglory; [1]): 0
Plant response rating, Morningglory (morningglory; [2]): 0
Morningglory plant response rating (morningglory; [3]): 2
Morningglory plant response rating (morningglory; [4]): 8
Nutsedge plant response rating (purple nutsedge; [1]): 0
Plant response rating, Nutsedge (purple nutsedge; [2]): 0
Nutsedge plant response rating (purple nutsedge; [4]): 2
Corn plant response rating (corn; [1]): 0
Plant response rating, Corn (corn; [2]): 0
Corn plant response rating (corn; [3]): 6
Corn plant response rating (corn; [4]): 9
Cocklebur plant response rating (cocklebur; [1]): 0
Plant response rating, Cocklebur (cocklebur; [2]): 0
Cocklebur plant response rating (cocklebur; [3]): 0
Cocklebur plant response rating (cocklebur; [4]): 0
Sugarbeets plant response rating (sugar beet; [1]): 0
Plant response rating, Sugarbeets (sugar beet; [2]): 0
Sugarbeets plant response rating (sugar beet; [3]): 0
Sugarbeets plant response rating (sugar beet; [4]): 7
Giant foxtail plant response rating (giant foxtail; [1]): 9
Plant response rating, Giant foxtail (giant foxtail; [2]): 9
Giant foxtail plant response rating (giant foxtail; [3]): 9
Giant foxtail plant response rating (giant foxtail; [4]): 10
Wild oats plant response rating (wild oat; [1]): 2
Plant response rating, Wild oats (wild oat; [2]): 7
Wild oats plant response rating (wild oat; [3]): 10
Wild oats plant response rating (wild oat; [4]): 10
B. signalgrass plant response rating (surinam grass; [1]): 5
Plant response rating, B. signalgrass (surinam grass; [2]): 10
B. signalgrass plant response rating (surinam grass; [3]): 10
B. signalgrass plant response rating (surinam grass; [4]): 10
Velvetleaf plant response rating (velvetleaf; [1]): 0
Plant response rating, Velvetleaf (velvetleaf; [2]): 2
Velvetleaf plant response rating (velvetleaf; [3]): 4
Velvetleaf plant response rating (velvetleaf; [4]): 8
Rape plant response rating (rape; [1]): 0
Plant response rating, Rape (rape; [2]): 2
Rape plant response rating (rape; [3]): 3
Rape plant response rating (rape; [4]): 10
Blackgrass plant response rating (blackgrass; [1]): 6
Plant response rating, Blackgrass (blackgrass; [2]): 10
Blackgrass plant response rating (blackgrass; [3]): 10
Blackgrass plant response rating (blackgrass; [4]): 10
Wheat plant response rating (wheat; [1]): 0
Plant response rating, Wheat (wheat; [2]): 0
Wheat plant response rating (wheat; [3]): 4
Wheat plant response rating (wheat; [4]): 6
Redroot pigweed plant response rating (pigweed; [1]): 7
Plant response rating, Redroot pigweed (pigweed; [2]): 9
Redroot pigweed plant response rating (pigweed; [3]): 10
Redroot pigweed plant response rating (pigweed; [4]): 10

C#CCn1c(=O)on(C(=O)N(c2ccc(F)cc2F)C(C)C)c1=O [Compound 764]
Plant response rating, Soybean (soybean; [5]): 1
Soybean plant response rating (soybean; [6]): 4
Soybean plant response rating (soybean; [3]): 3
Soybean plant response rating (soybean; [7]): 0
Soybean plant response rating (soybean; [8]): 0
Soybean plant response rating (soybean; [9]): 3
Soybean plant response rating (soybean; [4]): 5
Plant response rating, Bedstraw (bedstraw; [5]): 0
Bedstraw plant response rating (bedstraw; [10]): 5
Bedstraw plant response rating (bedstraw; [6]): 5
Bedstraw plant response rating (bedstraw; [3]): 5
Bedstraw plant response rating (bedstraw; [7]): 0
Bedstraw plant response rating (bedstraw; [8]): 5
Bedstraw plant response rating (bedstraw; [4]): 8
Plant response rating, Crabgrass (crabgrass; [5]): 0
Crabgrass plant response rating (crabgrass; [10]): 6
Crabgrass plant response rating (crabgrass; [6]): 9
Crabgrass plant response rating (crabgrass; [3]): 10
Crabgrass plant response rating (crabgrass; [7]): 10
Crabgrass plant response rating (crabgrass; [8]): 10
Crabgrass plant response rating (crabgrass; [9]): 9
Crabgrass plant response rating (crabgrass; [4]): 10
Plant response rating, Morningglory (morningglory; [5]): 1
Morningglory plant response rating (morningglory; [10]): 1
Morningglory plant response rating (morningglory; [6]): 5
Morningglory plant response rating (morningglory; [3]): 0
Morningglory plant response rating (morningglory; [7]): 0
Morningglory plant response rating (morningglory; [9]): 2
Morningglory plant response rating (morningglory; [4]): 2
Plant response rating, Nutsedge (purple nutsedge; [5]): 0
Nutsedge plant response rating (purple nutsedge; [10]): 0
Nutsedge plant response rating (purple nutsedge; [6]): 3
Nutsedge plant response rating (purple nutsedge; [3]): 0
Nutsedge plant response rating (purple nutsedge; [7]): 0
Nutsedge plant response rating (purple nutsedge; [8]): 0
Nutsedge plant response rating (purple nutsedge; [9]): 0
Nutsedge plant response rating (purple nutsedge; [4]): 4
Plant response rating, Corn (corn; [5]): 0
Corn plant response rating (corn; [10]): 0
Corn plant response rating (corn; [6]): 4
Corn plant response rating (corn; [3]): 6
Corn plant response rating (corn; [7]): 0
Corn plant response rating (corn; [8]): 0
Corn plant response rating (corn; [9]): 0
Corn plant response rating (corn; [4]): 9
Plant response rating, Cocklebur (cocklebur; [5]): 0
Cocklebur plant response rating (cocklebur; [10]): 0
Cocklebur plant response rating (cocklebur; [6]): 5
Cocklebur plant response rating (cocklebur; [3]): 0
Cocklebur plant response rating (cocklebur; [7]): 0
Cocklebur plant response rating (cocklebur; [9]): 2
Cocklebur plant response rating (cocklebur; [4]): 8
Plant response rating, Sugarbeets (sugar beet; [5]): 0
Sugarbeets plant response rating (sugar beet; [6]): 7
Sugarbeets plant response rating (sugar beet; [3]): 5
Sugarbeets plant response rating (sugar beet; [7]): 0
Sugarbeets plant response rating (sugar beet; [8]): 0
Sugarbeets plant response rating (sugar beet; [9]): 3
Sugarbeets plant response rating (sugar beet; [4]): 8
Plant response rating, Giant foxtail (giant foxtail; [5]): 3
Giant foxtail plant response rating (giant foxtail; [10]): 7
Giant foxtail plant response rating (giant foxtail; [6]): 8
Giant foxtail plant response rating (giant foxtail; [3]): 10
Giant foxtail plant response rating (giant foxtail; [7]): 10
Giant foxtail plant response rating (giant foxtail; [8]): 10
Giant foxtail plant response rating (giant foxtail; [9]): 8
Giant foxtail plant response rating (giant foxtail; [4]): 10
Plant response rating, Wild oats (wild oat; [5]): 0
Wild oats plant response rating (wild oat; [6]): 3
Wild oats plant response rating (wild oat; [3]): 6
Wild oats plant response rating (wild oat; [7]): 0
Wild oats plant response rating (wild oat; [8]): 3
Wild oats plant response rating (wild oat; [9]): 2
Wild oats plant response rating (wild oat; [4]): 7
Plant response rating, B. signalgrass (surinam grass; [5]): 0
B. signalgrass plant response rating (surinam grass; [10]): 0
B. signalgrass plant response rating (surinam grass; [1]): 8
B. signalgrass plant response rating (surinam grass; [3]): 9
B. signalgrass plant response rating (surinam grass; [8]): 7
B. signalgrass plant response rating (surinam grass; [9]): 2
B. signalgrass plant response rating (surinam grass; Rate 500 g/ha, Postemergence, scale 0 to 10, 0 is no effect, 10 is complete control): 3
B. signalgrass plant response rating (surinam grass; [4]): 10
Plant response rating, Velvetleaf (velvetleaf; [5]): 0
Velvetleaf plant response rating (velvetleaf; [6]): 4
Velvetleaf plant response rating (velvetleaf; [3]): 5
Velvetleaf plant response rating (velvetleaf; [7]): 3
Velvetleaf plant response rating (velvetleaf; [8]): 5
Velvetleaf plant response rating (velvetleaf; [9]): 4
Velvetleaf plant response rating (velvetleaf; [4]): 8
Plant response rating, Rape (rape; [5]): 0
Rape plant response rating (rape; [10]): 0
Rape plant response rating (rape; [6]): 7
Rape plant response rating (rape; [3]): 9
Rape plant response rating (rape; [7]): 0
Rape plant response rating (rape; [8]): 0
Rape plant response rating (rape; [9]): 3
Rape plant response rating (rape; [4]): 10
Plant response rating, Blackgrass (blackgrass; [5]): 3
Blackgrass plant response rating (blackgrass; [10]): 6
Blackgrass plant response rating (blackgrass; [6]): 8
Blackgrass plant response rating (blackgrass; [3]): 8
Blackgrass plant response rating (blackgrass; [7]): 7
Blackgrass plant response rating (blackgrass; [8]): 7
Blackgrass plant response rating (blackgrass; [9]): 6
Blackgrass plant response rating (blackgrass; [4]): 9
Plant response rating, Wheat (wheat; [5]): 0
Wheat plant response rating (wheat; [7]): 0
Wheat plant response rating (wheat; [8]): 3
Wheat plant response rating (wheat; [9]): 7
Wheat plant response rating (wheat; [4]): 7
Plant response rating, Redroot pigweed (pigweed; [5]): 0
Redroot pigweed plant response rating (pigweed; [10]): 5
Redroot pigweed plant response rating (pigweed; [6]): 7
Redroot pigweed plant response rating (pigweed; [3]): 10
Redroot pigweed plant response rating (pigweed; [7]): 9
Redroot pigweed plant response rating (pigweed; [8]): 10
Redroot pigweed plant response rating (pigweed; [9]): 7
Redroot pigweed plant response rating (pigweed; [4]): 10
